For test [1], the target named is T1, Cannabinoid receptor 2 (Homo sapiens, UniProt P34972). The experiment in a line: Agonist activity at human CB2 receptor expressed in CHO cells assessed as inhibition of forskolin-stimulated intracellular cAMP accumulation measured after 30 mins by Glosensor assay. It is filed as functional, cell-based.
Test [2] has as its target T1, Cannabinoid receptor 2. The experiment in a line: Agonist activity at human CB2 receptor expressed in CHO cells assessed as inhibition of forskolin-stimulated intracellular cAMP accumulation measured after 30 mins by Glosensor assay relative to control. It is filed as functional, cell-based. To be noted: filed as agonist.
For test [3], the target named is T2, Cannabinoid receptor 1 (Homo sapiens, UniProt P21554). The test is described as follows: Agonist activity at human CB1 receptor expressed in CHO cells assessed as inhibition of forskolin-stimulated intracellular cAMP accumulation measured after 30 mins by Glosensor assay. The test is classed as cell-based.
T2 sequence (P21554 whole entry): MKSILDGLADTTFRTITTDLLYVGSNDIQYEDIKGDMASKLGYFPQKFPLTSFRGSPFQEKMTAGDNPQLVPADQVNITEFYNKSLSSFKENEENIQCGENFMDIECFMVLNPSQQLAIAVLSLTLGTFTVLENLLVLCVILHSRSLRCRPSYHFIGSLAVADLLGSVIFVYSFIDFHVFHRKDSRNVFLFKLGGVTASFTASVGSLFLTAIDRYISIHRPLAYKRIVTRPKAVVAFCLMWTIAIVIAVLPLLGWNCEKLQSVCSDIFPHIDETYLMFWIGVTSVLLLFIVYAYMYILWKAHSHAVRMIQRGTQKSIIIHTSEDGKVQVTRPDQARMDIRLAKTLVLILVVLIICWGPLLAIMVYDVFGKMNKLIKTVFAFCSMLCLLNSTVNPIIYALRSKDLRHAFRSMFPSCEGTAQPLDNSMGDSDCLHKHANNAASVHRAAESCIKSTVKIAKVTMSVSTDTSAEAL
A further test is filed under the species Homo sapiens. The experiment in a line: Selectivity ratio of EC50 for agonist activity at human CB1 receptor expressed in CHO cells to EC50 for agonist activity at human CB2 receptor expressed in CHO cells. The test is classed as cell-based.
Test [4] concerns the target T2, Cannabinoid receptor 1. The test is described as follows: Inverse agonist activity at human CB1 receptor expressed in CHO cells assessed as forskolin-stimulated intracellular cAMP accumulation measured after 30 mins by Glosensor assay. The test is classed as cell-based.
The target in test [5] is T1, Cannabinoid receptor 2. The test is described as follows: Inverse agonist activity at human CB2 receptor expressed in CHO cells assessed as forskolin-stimulated intracellular cAMP accumulation measured after 30 mins by Glosensor assay. It is filed as functional, cell-based.

Each structure is given as a SMILES string. pEC50: −log10 of the molar value. Where only a bound is given, the exact number is not on record here.

T1 sequence (P34972 whole entry): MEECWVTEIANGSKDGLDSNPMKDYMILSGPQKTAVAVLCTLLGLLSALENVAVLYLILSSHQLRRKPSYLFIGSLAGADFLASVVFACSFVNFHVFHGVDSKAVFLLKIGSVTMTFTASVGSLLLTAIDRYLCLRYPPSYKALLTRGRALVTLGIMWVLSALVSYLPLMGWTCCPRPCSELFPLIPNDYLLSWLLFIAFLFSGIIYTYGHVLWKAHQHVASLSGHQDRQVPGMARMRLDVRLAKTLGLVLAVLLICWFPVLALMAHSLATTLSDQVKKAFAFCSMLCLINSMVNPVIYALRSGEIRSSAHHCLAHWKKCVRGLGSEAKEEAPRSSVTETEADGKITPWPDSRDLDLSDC

As to `Cc1ccc(N2CCCC(c3nc(-c4ccc(F)c5cn[nH]c45)no3)CC2=O)cc1` (centres undefined), the negative logarithm of the EC50 (pEC50) is 5.87 at Cannabinoid receptor 2 [1] and under 5.00 at Cannabinoid receptor 1 [3]. Besides, the Emax at Cannabinoid receptor 2 [2] worked out at 82%.

Turning to `O=C1CC(c2nc(-c3ccc(F)c4cn[nH]c34)no2)CCCN1c1cccc(F)c1F` (centres undefined), the pEC50 at Cannabinoid receptor 2 [1] was 6.48; on Cannabinoid receptor 1 [3], under 5.00. Further, the Emax at Cannabinoid receptor 2 [2] is 92%.

`O=C(c1ccc(F)cc1)N1CC2(CC(c3nc(-c4ccccc4)no3)C2)C1`: the pEC50 at Cannabinoid receptor 2 [1] and on Cannabinoid receptor 1 [3] was under 5.00 each time.

In the case of `O=C1CC(c2nc(-c3ccccc3)no2)CCCN1c1ccc(F)cc1` (centres undefined), the pEC50 was 5.55 at Cannabinoid receptor 2 [1] and under 4.52 at Cannabinoid receptor 1 [3]. For the same molecule, the Ratio EC50 in the test filed under Homo sapiens is over 10. The Emax on Cannabinoid receptor 2 [2] stood at 78%.

Regarding `COc1ccc(N2CCCC(c3nc(-c4ccc(F)c5cn[nH]c45)no3)CC2=O)cc1` (centres undefined), the values for the pEC50 on Cannabinoid receptor 2 [1] and at Cannabinoid receptor 1 [3] were 5.92 and under 5.00, respectively. For the same molecule, the Emax on Cannabinoid receptor 2 [2] was determined as 101%.

In the case of `O=C1CC(c2nc(-c3ccc(F)c4cn[nH]c34)no2)CCCN1c1ccc(F)cc1F` (centres undefined), the pEC50 at Cannabinoid receptor 2 [1] was 6.96; on Cannabinoid receptor 1 [3], under 5.00. Moreover, the Emax at Cannabinoid receptor 2 [2] was found to be 100%.

Take `O=C1CC(c2nc(-c3ccc(F)c4cn[nH]c34)no2)CCCN1c1ccc(F)c(F)c1` (centres undefined): the pEC50 at Cannabinoid receptor 2 [1] is 6.50; at Cannabinoid receptor 1 [3], under 5.00. Besides, at Cannabinoid receptor 2 [2], the Emax stood at 81%.

For the molecule `O=C1CC(c2nc(-c3ccc(F)c4cn[nH]c34)no2)CCCN1c1ccc(OC(F)(F)F)cc1` (centres undefined), the results for the pEC50 on Cannabinoid receptor 2 [1] and on Cannabinoid receptor 1 [3] were 5.69 and under 5.00, respectively. The Emax on Cannabinoid receptor 2 [2] stood at 74%.

For `CC(=O)c1ccc(N2CCCC(c3nc(-c4ccc(F)c5cn[nH]c45)no3)CC2=O)cc1` (centres undefined), the pEC50 on Cannabinoid receptor 2 [1] and at Cannabinoid receptor 1 [3] was under 5.00 each time.

As to `O=C1CC(c2nc(-c3ccc(F)c4cn[nH]c34)no2)CCCN1c1ccc(Cl)cc1` (centres undefined), the pEC50 on Cannabinoid receptor 2 [1] is 6.09; on Cannabinoid receptor 1 [3] it was under 5.00. Besides, on Cannabinoid receptor 2 [2], the Emax was 112%.

For `O=C1CC(c2nc(-c3ccccc3)no2)CCN1c1ccc(F)cc1` (centres undefined), the pEC50 on Cannabinoid receptor 2 [1] and at Cannabinoid receptor 1 [3] was under 5.00 throughout.

As for `O=C1CC(c2nc(Cc3cccc(F)c3)no2)CCCN1c1ccc(F)cc1` (centres undefined), the negative logarithm of the EC50 (pEC50) at Cannabinoid receptor 2 [1] and on Cannabinoid receptor 1 [3] was under 5.00 each time.

As for `O=C1CC(c2nc(Cc3ccccc3)no2)CCCN1c1ccc(F)cc1` (centres undefined), the pEC50 at Cannabinoid receptor 2 [1] and at Cannabinoid receptor 1 [3] was under 5.00 each time.

Take `CN1CCCC(c2nc(-c3ccc(F)c4cn[nH]c34)no2)CC1=O` (centres undefined): the pEC50 on Cannabinoid receptor 2 [1] and on Cannabinoid receptor 1 [3] was under 5.00 throughout.

On to `O=C1CC(c2nc(-c3ccccc3F)no2)CCCN1c1ccc(F)cc1` (centres undefined), for which the pEC50 on Cannabinoid receptor 2 [1] and at Cannabinoid receptor 1 [3] was under 5.00 each time.

For the molecule `O=C(c1ccc(F)cc1)N1CC(c2nc(-c3ccccc3)no2)C1`, the negative logarithm of the EC50 (pEC50) on Cannabinoid receptor 2 [1] and on Cannabinoid receptor 1 [3] was under 5.00 in each case.

For the molecule `O=C1CC(c2nc(-c3ccc(F)cc3F)no2)CCCN1c1ccc(F)cc1` (centres undefined), the pEC50 on Cannabinoid receptor 2 [1] and at Cannabinoid receptor 1 [3] was under 5.00 in each case.

For `O=C1CC(c2nc(-c3ccc(F)cc3Cl)no2)CCCN1c1ccc(F)cc1` (centres undefined), the pEC50 at Cannabinoid receptor 2 [1] and on Cannabinoid receptor 1 [3] was under 5.00 in each case.

For the molecule `Cc1cc(F)ccc1-c1noc(C2CCCN(c3ccc(F)cc3)C(=O)C2)n1` (centres undefined), the pEC50 was 5.48 on Cannabinoid receptor 2 [1] and under 5.00 on Cannabinoid receptor 1 [3].

`O=C1CC(c2nc(-c3ccc(F)c4cn[nH]c34)no2)CCCN1c1cccc(F)c1` (centres undefined): the pEC50 at Cannabinoid receptor 2 [1] was 5.88; on Cannabinoid receptor 1 [3] it was under 5.00. For the same molecule, the Emax at Cannabinoid receptor 2 [2] was determined as 79%.

Take `O=C1CC(c2nc(Cc3ccccc3F)no2)CCCN1c1ccc(F)cc1` (centres undefined): the pEC50 at Cannabinoid receptor 2 [1] and at Cannabinoid receptor 1 [3] was under 5.00 each time.

For the molecule `O=C1CC(c2nc(-c3ccc(F)c4ccccc34)no2)CCCN1c1ccc(F)cc1` (centres undefined), the pEC50 at Cannabinoid receptor 2 [1] is 5.92; on Cannabinoid receptor 1 [3] it was under 5.00. On Cannabinoid receptor 2 [2], the Emax was 97%.

Take `O=C1CC(c2nc(-c3ccc(F)c4cn[nH]c34)no2)CCCN1c1ccccc1` (centres undefined): the pEC50 is 6.52 at Cannabinoid receptor 2 [1] and under 5.00 on Cannabinoid receptor 1 [3]. Further, on Cannabinoid receptor 2 [2], the maximal response (Emax) is 88%.

For the molecule `O=C1CC(c2nc(-c3ccc(F)c4cn[nH]c34)no2)CCCN1c1cc(F)c(F)c(F)c1` (centres undefined), the negative-log EC50 (pEC50) at Cannabinoid receptor 2 [1] was 6.47; on Cannabinoid receptor 1 [4], under 5.00. At Cannabinoid receptor 2 [2], the maximal effect (Emax) amounted to 102%.

Consider `O=C1C[C@H](c2nc(-c3ccc(F)c4cn[nH]c34)no2)CCCN1c1ccc(F)cc1`, for which the figures for the negative-log EC50 (pEC50) at Cannabinoid receptor 2 [1] and at Cannabinoid receptor 1 [3] were 7.46 and under 4.52, respectively. Besides, on Cannabinoid receptor 2 [2], the Emax came out at 102%.

For the molecule `O=C1CC(c2nc(-c3ccc(F)c4cc[nH]c34)no2)CCCN1c1ccc(F)cc1` (centres undefined), the results for the pEC50 on Cannabinoid receptor 2 [1] and at Cannabinoid receptor 1 [3] were 6.35 and under 5.00, respectively. The Emax at Cannabinoid receptor 2 [2] was 123%.

On to `Fc1ccc(Nc2cccc(-c3nc(-c4ccccc4)no3)c2)cc1`, for which the negative-log EC50 (pEC50) on Cannabinoid receptor 2 [1] and on Cannabinoid receptor 1 [3] was under 5.00 in each case.

With `O=C1CC(c2nc(-c3ccc(Cl)cc3)no2)CCCN1c1ccc(F)cc1` (centres undefined), the negative logarithm of the EC50 (pEC50) on Cannabinoid receptor 2 [1] and on Cannabinoid receptor 1 [3] was under 5.00 throughout.

Regarding `O=C(NCCc1nc(-c2ccccc2)no1)c1ccc(F)cc1`, the negative-log EC50 (pEC50) on Cannabinoid receptor 2 [5] and at Cannabinoid receptor 1 [3] was under 5.00 in each case.

With `COc1cc(F)ccc1-c1noc(C2CCCN(c3ccc(F)cc3)C(=O)C2)n1` (centres undefined), the results for the pEC50 on Cannabinoid receptor 2 [1] and on Cannabinoid receptor 1 [3] were 6.35 and under 5.00, respectively. In addition, the maximal effect (Emax) on Cannabinoid receptor 2 [2] amounted to 91%.

In the case of `O=C1CC(c2nc(-c3ccncc3)no2)CCCN1c1ccc(F)cc1` (centres undefined), the pEC50 at Cannabinoid receptor 2 [1] and at Cannabinoid receptor 1 [3] was under 5.00 each time.

For the molecule `O=C1CC(c2nc(-c3ccc(F)cn3)no2)CCCN1c1ccc(F)cc1` (centres undefined), the pEC50 at Cannabinoid receptor 2 [1] and at Cannabinoid receptor 1 [3] was under 5.00 throughout.

On to `O=C1CC(c2nc(-c3ccc(F)c4cn[nH]c34)no2)CCCN1c1ccccc1F` (centres undefined), for which the pEC50 was 7.34 on Cannabinoid receptor 2 [1] and under 5.00 at Cannabinoid receptor 1 [3]. Also, on Cannabinoid receptor 2 [2], the Emax stood at 93%.

For the molecule `O=C1CC(c2nc(-c3ccc(F)cc3C(F)(F)F)no2)CCCN1c1ccc(F)cc1` (centres undefined), the pEC50 at Cannabinoid receptor 2 [1] and at Cannabinoid receptor 1 [3] was under 5.00 in each case.

`O=C1C=C(c2nc(-c3ccccc3)no2)CCCN1c1ccc(F)cc1`: the pEC50 on Cannabinoid receptor 2 [1] and on Cannabinoid receptor 1 [3] was under 5.00 in each case.

For the molecule `O=C1CC(c2nc(-c3cccc(F)c3)no2)CCCN1c1ccc(F)cc1` (centres undefined), the pEC50 at Cannabinoid receptor 2 [1] was 5.67; on Cannabinoid receptor 1 [3], under 5.00. Moreover, the Emax on Cannabinoid receptor 2 [2] amounted to 97%.

With `Fc1ccc(Nc2ccc(-c3nc(-c4ccccc4)no3)cc2)cc1`, the pEC50 on Cannabinoid receptor 2 [1] and at Cannabinoid receptor 1 [3] was under 5.00 throughout.

Take `O=C1CC(c2nc(-c3ccc(F)c4cn[nH]c34)no2)CCCN1c1ccc(C(F)(F)F)cc1` (centres undefined): the pEC50 at Cannabinoid receptor 2 [1] and at Cannabinoid receptor 1 [3] was under 5.00 in each case.

Take `O=C1CC(c2nc(-c3ccc(F)cc3)no2)CCCN1c1ccc(F)cc1` (centres undefined): the values for the pEC50 on Cannabinoid receptor 2 [1] and at Cannabinoid receptor 1 [3] were 5.86 and under 5.00, respectively. For the same molecule, the Emax on Cannabinoid receptor 2 [2] amounted to 91%.

Turning to `O=C1CC(c2nc(Cc3ccc(F)cc3)no2)CCCN1c1ccc(F)cc1` (centres undefined), the pEC50 on Cannabinoid receptor 2 [1] and at Cannabinoid receptor 1 [3] was under 5.00 each time.

Turning to `O=C(c1ccc(F)cc1)N1CCC(c2nc(-c3ccccc3)no2)CC1`, the pEC50 on Cannabinoid receptor 2 [1] and on Cannabinoid receptor 1 [3] was under 5.00 each time.

In the case of `O=C1C[C@@H](c2nc(-c3ccc(F)c4cn[nH]c34)no2)CCCN1c1ccc(F)cc1`, the pEC50 on Cannabinoid receptor 2 [1] was 7.23; on Cannabinoid receptor 1 [3] it was under 4.52. Also, the Emax on Cannabinoid receptor 2 [2] turned out to be 80%.

For the origin of these results see ChEMBL document CHEMBL5344413, “Discovery of 4-(1,2,4-Oxadiazol-5-yl)azepan-2-one Derivatives as a New Class of Cannabinoid Type 2 Receptor Agonists for the Treatment of Inflammatory Pain” (J Med Chem, 2023).
